pIC50: −log10 of the molar value. Structures can show the parent of a compound that is named as a salt.
Assays:
[1] = biological target: T1, NLRP3 (Homo sapiens, UniProt Q96P20); assay: THP-1 cells pyroptosis assay (LPS + nigericin, resazurin readout; THP IC50); format: cell-based; parameters: Seed THP-1 cells (25,000 cells/well) containing 1.0 μg/ml LPS in 40 μl of RPMI medium; host or cells: THP-1 cells
Method in brief: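 Human THP-1 cells, 25,000/well in serum-free RPMI with 1 μg/ml LPS, treated 3 hrs at 37° C with compound (8-point half-log, 10 μM top, 0.1% DMSO), then 5 μM nigericin 1 hr. Viability by 100 μM resazurin fluorescence after 1-2 hrs; IC50 by 4-parameter fit.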

[2] = biological target: T1, NLRP3; assay: Human whole blood IL1β release assay (LPS + nigericin, AlphaLisa IL-1β; HWB IC50); format: cell-based; parameters: Human whole blood in Li-heparin tubes was obtained from healthy donors from a volunteer donor panel; from tissue; host or cells: human whole blood from healthy donors; details: IL-1β release
Method in brief: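 Donor Li-heparin whole blood primed with 1 μg/ml LPS, given compound (8-point half-log series, 10 μM top; DMSO 0.1% final) for 3 h at 37 °C, then nigericin 10 μM final for 1 h. Supernatant IL-1β measured by AlphaLisa; IC50 from 4-parameter variable-slope fit.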

T1 sequence (Q96P20 whole entry): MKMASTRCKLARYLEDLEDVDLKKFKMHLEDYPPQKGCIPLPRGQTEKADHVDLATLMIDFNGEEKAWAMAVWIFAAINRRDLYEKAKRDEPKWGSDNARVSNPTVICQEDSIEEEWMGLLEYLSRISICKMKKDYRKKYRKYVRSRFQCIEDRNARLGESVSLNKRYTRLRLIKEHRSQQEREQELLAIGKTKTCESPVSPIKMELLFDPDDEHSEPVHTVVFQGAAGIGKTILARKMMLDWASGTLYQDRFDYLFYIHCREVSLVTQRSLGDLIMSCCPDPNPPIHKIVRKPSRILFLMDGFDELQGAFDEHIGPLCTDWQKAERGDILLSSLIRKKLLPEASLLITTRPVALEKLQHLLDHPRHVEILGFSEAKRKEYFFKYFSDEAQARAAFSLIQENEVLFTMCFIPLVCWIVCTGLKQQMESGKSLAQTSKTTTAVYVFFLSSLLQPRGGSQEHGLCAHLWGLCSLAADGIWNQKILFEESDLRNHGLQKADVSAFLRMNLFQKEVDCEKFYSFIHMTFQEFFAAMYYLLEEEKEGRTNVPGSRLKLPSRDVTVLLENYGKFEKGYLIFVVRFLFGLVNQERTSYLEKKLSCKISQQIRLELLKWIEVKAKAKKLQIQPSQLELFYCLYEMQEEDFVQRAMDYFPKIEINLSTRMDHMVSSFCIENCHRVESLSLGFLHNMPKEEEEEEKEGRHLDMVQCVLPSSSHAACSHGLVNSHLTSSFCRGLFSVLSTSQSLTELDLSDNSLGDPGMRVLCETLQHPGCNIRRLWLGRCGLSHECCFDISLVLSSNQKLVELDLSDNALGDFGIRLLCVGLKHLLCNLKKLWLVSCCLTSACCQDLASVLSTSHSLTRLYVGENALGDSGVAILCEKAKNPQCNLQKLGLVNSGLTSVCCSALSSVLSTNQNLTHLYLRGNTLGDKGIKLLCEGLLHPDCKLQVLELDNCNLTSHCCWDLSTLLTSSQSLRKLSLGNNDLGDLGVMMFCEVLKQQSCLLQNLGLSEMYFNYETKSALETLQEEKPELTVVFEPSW

pIC50 [1] | pIC50 [2] | Compound
≥ 6.30 | ≥ 6.30 | COc1cc(-c2ccc3c(c2NC(=O)NS(=O)(=O)c2cc(C(=O)N(C)C)n(C)n2)CCC3)ccn1 [Example 169, 3-(N-((5-(2-Methoxypyridin-4-yl)-2,3-dihydro-1H-inden-4-yl)carbamoyl)sulfamoyl)-N,N,1-trimethyl-1H-pyrazole-5-carboxamide, sodium salt]
≥ 6.30 | ≥ 5.30 | COc1cc(-c2ccc3c(c2NC(=O)NS(=O)(=O)c2ccnc(C(C)C)c2)CCC3)ccn1 [Example 178, 2-Isopropyl-N-((5-(2-methoxypyridin-4-yl)-2,3-dihydro-1H-inden-4-yl)carbamoyl)pyridine-4-sulfonamide, sodium salt]
≥ 5.30 | ≥ 5.30 | CC(C)n1ccc(S(=O)(=O)NC(=O)Nc2c(-c3cccnc3)ccc3c2CCCC3)n1 [Example 179, 1-Isopropyl-N-((2-(pyridin-3-yl)-5,6,7,8-tetrahydronaphthalen-1-yl)carbamoyl)-1H-pyrazole-3-sulfonamide]
≥ 6.30 | ≥ 6.30 | N#Cc1cc(-c2ccc3c(c2NC(=O)NS(=O)(=O)c2ccn(C4CCOC4)n2)CCC3)ccn1 (stereo not shown) [Example 181, N-((5-(2-Cyanopyridin-4-yl)-2,3-dihydro-1H-inden-4-yl)carbamoyl)-1-(tetrahydrofuran-3-yl)-1H-pyrazole-3-sulfonamide, sodium salt]
≥ 6.30 | ≥ 6.30 | C[C@@H](O)Cn1ccc(S(=O)(=O)NC(=O)Nc2c(-c3ccnc(C#N)c3)ccc3c2CCC3)n1 [Example 182, (R)-N-((5-(2-Cyanopyridin-4-yl)-2,3-dihydro-1H-inden-4-yl)carbamoyl)-1-(2-hydroxypropyl)-1H-pyrazole-3-sulfonamide, sodium salt]
≥ 6.30 | ≥ 6.30 | CC(C)(O)Cn1ccc(S(=O)(=O)NC(=O)Nc2c(-c3ccnc(C#N)c3)ccc3c2CCC3)n1 [Example 183, N-((5-(2-Cyanopyridin-4-yl)-2,3-dihydro-1H-inden-4-yl)carbamoyl)-1-(2-hydroxy-2-methylpropyl)-1H-pyrazole-3-sulfonamide, sodium salt]
≥ 6.30 | ≥ 6.30 | COc1cc(-c2ccc3c(c2NC(=O)NS(=O)(=O)c2ccn(C[C@@H](C)O)n2)CCC3)ccn1 [Example 184, (R)-1-(2-Hydroxypropyl)-N-((5-(2-methoxypyridin-4-yl)-2,3-dihydro-1H-inden-4-yl)carbamoyl)-1H-pyrazole-3-sulfonamide]
≥ 6.30 | ≥ 6.30 | COc1cc(-c2ccc3c(c2NC(=O)NS(=O)(=O)c2ccn(CC(C)(C)OC)n2)CCC3)ccn1 [Example 185, 1-(2-Methoxy-2-methylpropyl)-N-((5-(2-methoxypyridin-4-yl)-2,3-dihydro-1H-inden-4-yl)carbamoyl)-1H-pyrazole-3-sulfonamide]
≥ 6.30 | ≥ 6.30 | COc1cc(-c2ccc3c(c2NC(=O)NS(=O)(=O)c2ccn(CC(C)(C)O)n2)CCC3)ccn1 [Example 186, 1-(2-Hydroxy-2-methylpropyl)-N-((5-(2-methoxypyridin-4-yl)-2,3-dihydro-1H-inden-4-yl)carbamoyl)-1H-pyrazole-3-sulfonamide]
≥ 6.30 | ≥ 6.30 | COc1cc(-c2ccc3c(c2NC(=O)NS(=O)(=O)c2ccn(C4CCOC4)n2)CCC3)ccn1 (stereo not shown) [Example 187, N-((5-(2-Methoxypyridin-4-yl)-2,3-dihydro-1H-inden-4-yl)carbamoyl)-1-(tetrahydrofuran-3-yl)-1H-pyrazole-3-sulfonamide]
≥ 6.30 | ≥ 6.30 | COc1cc(-c2ccc3c(c2NC(=O)NS(=O)(=O)c2ccn(C(C)(C)C(=O)N(C)C)n2)CCC3)ccn1 [Example 189, 2-(3-(N-((5-(2-Methoxypyridin-4-yl)-2,3-dihydro-1H-inden-4-yl)carbamoyl)sulfamoyl)-1H-pyrazol-1-yl)-N,N,2-trimethylpropanamide]
≥ 6.30 | ≥ 6.00 | COc1cc(-c2ccc3c(c2NC(=O)NS(=O)(=O)c2cc(C4CCCN4C)n(C(C)C)n2)CCC3)ccn1 (stereo not shown) [Example 191, 1-Isopropyl-N-((5-(2-methoxypyridin-4-yl)-2,3-dihydro-1H-inden-4-yl)carbamoyl)-5-(1-methylpyrrolidin-2-yl)-1H-pyrazole-3-sulfonamide, sodium salt]
≥ 6.30 | ≥ 6.30 | CCC(c1cc(S(=O)(=O)NC(=O)Nc2c(-c3ccnc(OC)c3)ccc3c2CCC3)nn1C(C)C)N(C)C (stereo not shown) [Example 192, 5-(1-(Dimethylamino)propyl)-1-isopropyl-N-((5-(2-methoxypyridin-4-yl)-2,3-dihydro-1H-inden-4-yl)carbamoyl)-1H-pyrazole-3-sulfonamide]
≥ 6.30 | ≥ 6.30 | COc1cc(-c2ccc3c(c2NC(=O)NS(=O)(=O)c2cc(CN(C)C)n(C(C)C)n2)CCC3)ccn1 [Example 193, 5-((Dimethylamino)methyl)-1-isopropyl-N-((5-(2-methoxypyridin-4-yl)-2,3-dihydro-1H-inden-4-yl)carbamoyl)-1H-pyrazole-3-sulfonamide]

Continued, compound first:

Compound | pIC50 [1] | pIC50 [2]
COc1cc(-c2cc(F)c3c(c2NC(=O)NS(=O)(=O)c2ccn(C4CC4)n2)CCC3)ccn1 [Example 170, 1-Cyclopropyl-N-((7-fluoro-5-(2-methoxypyridin-4-yl)-2,3-dihydro-1H-inden-4-yl)carbamoyl)-1H-pyrazole-3-sulfonamide, sodium salt] | ≥ 6.30 | ≥ 6.00
COc1cc(-c2cc(C3CC3)c3c(c2NC(=O)NS(=O)(=O)c2ccn(C4CC4)n2)CCC3)ccn1 [Example 171, 1-Cyclopropyl-N-((7-cyclopropyl-5-(2-methoxypyridin-4-yl)-2,3-dihydro-1H-inden-4-yl)carbamoyl)-1H-pyrazole-3-sulfonamide, sodium salt] | ≥ 6.30 | ≥ 5.30
COc1cc(-c2cc(F)c3c(c2NC(=O)NS(=O)(=O)c2ccn(C4CCC4)n2)CCC3)ccn1 [Example 172, 1-Cyclobutyl-N-((7-fluoro-5-(2-methoxypyridin-4-yl)-2,3-dihydro-1H-inden-4-yl)carbamoyl)-1H-pyrazole-3-sulfonamide, sodium salt] | ≥ 6.30 | ≥ 6.00
COc1cc(-c2cc(F)c3c(c2NC(=O)NS(=O)(=O)c2ccn(C(C)(C)CN4CCC4)n2)CCC3)ccn1 [Example 173, 1-(1-(Azetidin-1-yl)-2-methylpropan-2-yl)-N-((7-fluoro-5-(2-methoxypyridin-4-yl)-2,3-dihydro-1H-inden-4-yl)carbamoyl)-1H-pyrazole-3-sulfonamide, sodium salt] | ≥ 6.30 | ≥ 6.30
COc1cc(-c2ccc3c(c2NC(=O)NS(=O)(=O)CCOC(C)C)CCC3)ccn1 [Example 174, 2-Isopropoxy-N-((5-(2-methoxypyridin-4-yl)-2,3-dihydro-1H-inden-4-yl)carbamoyl)ethanesulfonamide, sodium salt] | ≥ 6.30 | ≥ 6.00
COc1cc(-c2ccc3c(c2NC(=O)NS(=O)(=O)CCOC(C)C)CCO3)ccn1 [Example 175, 2-Isopropoxy-N-((5-(2-methoxypyridin-4-yl)-2,3-dihydrobenzofuran-4-yl)carbamoyl)ethanesulfonamide, sodium salt] | ≥ 6.30 | ≥ 6.30
COc1cc(-c2ccc3c(c2NC(=O)NS(=O)(=O)c2ccc(CN(C)C)nc2)CCC3)ccn1 [Example 176, 6-((Dimethylamino)methyl)-N-((5-(2-methoxypyridin-4-yl)-2,3-dihydro-1H-inden-4-yl)carbamoyl)pyridine-3-sulfonamide] | ≥ 6.30 | ≥ 6.30
COc1cc(-c2ccc3c(c2NC(=O)NS(=O)(=O)c2ccnc(CN(C)C)c2)CCC3)ccn1 [Example 177, 2-((Dimethylamino)methyl)-N-((5-(2-methoxypyridin-4-yl)-2,3-dihydro-1H-inden-4-yl)carbamoyl)pyridine-4-sulfonamide, sodium salt] | ≥ 6.30 | ≥ 6.00
COc1cc(-c2ccc3c(c2NC(=O)NS(=O)(=O)c2ccn(C(C)(C)CN4CC(OC)C4)n2)CCC3)ccn1 [Example 180, 1-(1-(3-Methoxyazetidin-1-yl)-2-methylpropan-2-yl)-N-((5-(2-methoxypyridin-4-yl)-2,3-dihydro-1H-inden-4-yl)carbamoyl)-1H-pyrazole-3-sulfonamide] | ≥ 6.30 | ≥ 6.30
COc1cc(-c2ccc3c(c2NC(=O)NS(=O)(=O)c2cc(C4(OC)COC4)n(C)n2)CCC3)ccn1 [Example 188, 5-(3-Methoxyoxetan-3-yl)-N-((5-(2-methoxypyridin-4-yl)-2,3-dihydro-1H-inden-4-yl)carbamoyl)-1-methyl-1H-pyrazole-3-sulfonamide] | ≥ 6.30 | ≥ 6.30
CNCc1cc(S(=O)(=O)NC(=O)Nc2c(-c3ccnc(OC)c3)ccc3c2CCC3)nn1C1CC1 [Example 190, 1-Cyclopropyl-N-((5-(2-methoxypyridin-4-yl)-2,3-dihydro-1H-inden-4-yl)carbamoyl)-5-((methylamino)methyl)-1H-pyrazole-3-sulfonamide, sodium salt] | ≥ 6.30 | ≥ 6.30
CC(C)(C#N)n1ccc(S(=O)(=O)NC(=O)Nc2c(-c3ccnc(OC(F)F)c3)ccc3c2CCO3)n1 [Example 195, 1-(2-Cyanopropan-2-yl)-N-((5-(2-(difluoromethoxy)pyridin-4-yl)-2,3-dihydrobenzofuran-4-yl)carbamoyl)-1H-pyrazole-3-sulfonamide] | ≥ 6.30 | ≥ 6.30

Reference: patent US20200361895A1, “NOVEL SULFONAMIDE CARBOXAMIDE COMPOUNDS” (Inflazome Limited, priority 2017, published 2020)
